How the values were obtained:
[1] = target: T1, human Cystic Fibrosis Transmembrane Conductance Regulator (CFTR) harboring the ΔF508 mutation (Homo sapiens, UniProt P13569, DEL508-508); test: H441 cell ΔF508-CFTR-HRP cell surface assay (Emax and EC50); type: cell-based; details: for Emax: NCI-H441, NA = Not active
T1 construct: expressed in transfected cells; host or cells: H441 carcinoma line (G418-selected)
Summary of the method: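 H441 and 41o- bronchial epithelial cells expressing ΔF508-CFTR with an extracellular-loop-4 HRP tag were treated with a 15-point compound series (24.5–0.001 μM) for two nights, H441 at 27° C, 41o- at 37° C with 0.0005 mg/ml doxycycline. Surface HRP luminescence read; % of maximum VX809 signal and EC50 derived.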

[2] = target: T2, CFTR-mediated transepithelial chloride transport in primary human bronchial epithelial cells from a ΔF508 homozygous CF donor (Homo sapiens, UniProt P13569, DEL508-508); test: TECC24 recording of CFTR-mediated transepithelial chloride transport in CF-HBE cells (AUC fold over DMSO); type: cell-based; details: test agent 10 μM, 48 hours incubation, AUC of forskolin-stimulated IEQ relative to DMSO
T2 construct: Primary human bronchial epithelial cells from a ΔF508 homozygous CF donor; host or cells: primary CF-HBE cells, ΔF508 homozygous donor
T2 sequence (P13569 with tags, fused parts or gaps DEL508-508): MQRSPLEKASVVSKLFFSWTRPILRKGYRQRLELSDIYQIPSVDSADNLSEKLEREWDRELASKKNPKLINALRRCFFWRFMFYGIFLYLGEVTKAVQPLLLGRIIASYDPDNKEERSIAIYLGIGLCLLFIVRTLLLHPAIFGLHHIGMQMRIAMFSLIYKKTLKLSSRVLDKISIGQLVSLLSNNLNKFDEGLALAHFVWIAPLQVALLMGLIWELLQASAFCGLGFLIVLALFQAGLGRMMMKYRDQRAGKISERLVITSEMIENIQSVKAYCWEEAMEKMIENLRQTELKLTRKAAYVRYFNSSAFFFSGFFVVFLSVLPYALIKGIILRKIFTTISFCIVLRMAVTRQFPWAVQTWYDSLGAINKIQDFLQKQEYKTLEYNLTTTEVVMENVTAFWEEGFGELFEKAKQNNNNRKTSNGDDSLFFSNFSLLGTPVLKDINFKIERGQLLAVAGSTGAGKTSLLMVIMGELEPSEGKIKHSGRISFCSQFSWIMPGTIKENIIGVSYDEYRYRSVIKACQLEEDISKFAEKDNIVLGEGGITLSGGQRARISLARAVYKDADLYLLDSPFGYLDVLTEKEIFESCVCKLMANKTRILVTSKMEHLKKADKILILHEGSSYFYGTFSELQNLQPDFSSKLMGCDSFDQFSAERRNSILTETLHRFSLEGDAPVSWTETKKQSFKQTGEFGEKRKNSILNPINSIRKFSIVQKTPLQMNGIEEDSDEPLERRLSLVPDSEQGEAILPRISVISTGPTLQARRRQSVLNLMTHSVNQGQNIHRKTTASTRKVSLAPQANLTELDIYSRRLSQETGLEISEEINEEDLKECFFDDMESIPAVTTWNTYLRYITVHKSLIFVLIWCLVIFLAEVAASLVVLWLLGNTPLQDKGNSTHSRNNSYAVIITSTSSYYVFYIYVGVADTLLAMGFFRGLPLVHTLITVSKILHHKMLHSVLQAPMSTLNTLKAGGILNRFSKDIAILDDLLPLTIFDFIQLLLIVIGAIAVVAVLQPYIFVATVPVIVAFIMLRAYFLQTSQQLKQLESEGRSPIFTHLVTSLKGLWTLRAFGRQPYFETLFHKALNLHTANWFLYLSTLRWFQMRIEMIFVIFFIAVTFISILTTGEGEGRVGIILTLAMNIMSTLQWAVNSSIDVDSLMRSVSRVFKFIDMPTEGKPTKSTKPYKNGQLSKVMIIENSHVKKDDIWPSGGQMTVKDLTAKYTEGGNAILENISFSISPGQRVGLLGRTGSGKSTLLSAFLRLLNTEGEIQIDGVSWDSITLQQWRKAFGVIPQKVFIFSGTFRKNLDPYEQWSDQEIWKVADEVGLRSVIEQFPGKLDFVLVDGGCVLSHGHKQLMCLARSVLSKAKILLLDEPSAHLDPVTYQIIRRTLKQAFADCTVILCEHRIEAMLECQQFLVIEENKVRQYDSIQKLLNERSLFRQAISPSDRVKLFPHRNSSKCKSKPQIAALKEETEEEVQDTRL
Summary of the method: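 Equivalent Cl⁻ current was derived from transepithelial voltage and resistance, and its AUC from forskolin (10 μM) to CFTRinh-172 (20 μM) was divided by the DMSO AUC. Benzamil 10 μM blocked ENaC. Cells were ΔF508-homozygous primary bronchial epithelia pretreated 48 h at 36.5 °C in IL-13 medium.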

T1 sequence (P13569 with tags, fused parts or gaps DEL508-508): as above

| Compound | EC50 [1] [µM] | Emax [1] [%] | TECC24 AUC fold over DMSO @10 μM [2] |
| --- | --- | --- | --- |
| CC(C)(SCC1CC1(F)F)[C@H](NC(=O)c1ccc2ccccc2c1OCC1CCCCC1)C(=O)O (stereo partly drawn) [Example 165, (2R)-2-(1-(cyclohexylmethoxy)-2-naphthamido)-3-(((2,2-difluorocyclopropyl)methyl)thio)-3-methylbutanoic Acid] | 3.4 | 113 | C (“C” refers to AUC @10 uM <4) |
| CC(C)(SC1CCCC1)[C@H](NC(=O)c1ccc2ccccc2c1OCC1CCCCC1)C(=O)O [Example 170, (R)-2-(1-(cyclohexylmethoxy)-2-naphthamido)-3-(cyclopentylthio)-3-methylbutanoic Acid] | 5 | 143 | C (“C” refers to AUC @10 uM <4) |
| Cc1cc(C)c(C[C@H](NC(=O)c2ccc3ccccc3c2OCc2ccc(C(F)(F)F)cc2)C(=O)O)c(C)c1 [Example 178, (S)-3-mesityl-2-(1-((4-(trifluoromethyl)benzyl)oxy)-2-naphthamido)propanoic Acid] | 0.9 | 150 | C (“C” refers to AUC @10 uM <4) |
| CC(C)(C)C[C@H](NC(=O)c1ccc2ccccc2c1OC[C@H]1CC[C@H](C(F)(F)F)CC1)C(=O)O [Example 179, (S)-4,4-dimethyl-2-(1-(((1r,4S)-4-(trifluoromethyl)cyclohexyl)methoxy)-2-naphthamido)pentanoic Acid] | 3.4 | 103 | C (“C” refers to AUC @10 uM <4) |
| O=C(N[C@H](C(=O)O)C(c1ccccc1)c1ccccc1)c1ccc2ccccc2c1OCc1ccc(OC(F)(F)F)cc1 [Example 189, (S)-3,3-diphenyl-2-(1-((4-(trifluoromethoxy)benzyl)oxy)-2-naphthamido)propanoic Acid] | 2.4 | 14.3 | C (“C” refers to AUC @10 uM <4) |
| O=C(N[C@H](C(=O)O)C(c1ccccc1)c1ccccc1)c1ccc2cc(F)ccc2c1OCc1ccc(C(F)(F)F)cc1 [Example 196] | 0.3 | 101 | C (“C” refers to AUC @10 uM <4) |
| O=C(N[C@H](C(=O)O)C(c1ccccc1)c1ccccc1)c1ccc2ccccc2c1OCC1CCCCC1 [Example 199, (S)-2-(1-(cyclohexylmethoxy)-2-naphthamido)-3,3-diphenylpropanoic Acid] | 0.5 | 129 | C (“C” refers to AUC @10 uM <4) |
| CC(C)(C)C[C@H](NC(=O)c1ccc2ccccc2c1OCC1CCCCC1)C(=O)O [Example 201, (S)-2-(1-(cyclohexylmethoxy)-2-naphthamido)-4,4-dimethylpentanoic Acid] | 4.1 | 135 | C (“C” refers to AUC @10 uM <4) |
| O=C(N[C@H](C(=O)O)C(c1ccccc1)c1ccccc1)c1ccc2cc(F)ccc2c1OCC1CCCCC1 [Example 203] | 0.8 | 101 | C (“C” refers to AUC @10 uM <4) |
| CC(C)(C)C[C@H](NC(=O)c1ccc2cc(F)ccc2c1OCC1CCCCC1)C(=O)O [Example 205, (S)-2-(1-(cyclohexylmethoxy)-6-fluoro-2-naphthamido)-4,4-dimethylpentanoic Acid] | 4.8 | 92.2 | C (“C” refers to AUC @10 uM <4) |
| O=C(N[C@@H](Cc1ccc(C(F)(F)F)cc1)C(=O)O)c1ccc2cc(F)ccc2c1OCc1ccc(Cl)c(Cl)c1 [Example 210, (S)-2-(1-((3,4-dichlorobenzyl)oxy)-6-fluoro-2-naphthamido)-3-(4-(trifluoromethyl)phenyl)propanoic Acid] | 4.3 | 38.8 | C (“C” refers to AUC @10 uM <4) |
| O=C(N[C@H](C(=O)O)C(c1ccccc1)c1ccccc1)c1ccc2ccccc2c1OCc1nc2ccccc2s1 [Example 212, (S)-2-(1-(benzo[d]thiazol-2-ylmethoxy)-2-naphthamido)-3,3-diphenylpropanoic Acid] | 1.2 | 141 | C (“C” refers to AUC @10 uM <4) |
| CC(C)(C)C[C@H](NC(=O)c1ccc2ccccc2c1OCc1nc2ccccc2s1)C(=O)O [Example 214, (S)-2-(1-(benzo[d]thiazol-2-ylmethoxy)-2-naphthamido)-4,4-dimethylpentanoic Acid] | 3.4 | 112 | C (“C” refers to AUC @10 uM <4) |

Second part, the compound after the results:

| EC50 [1] [µM] | Emax [1] [%] | TECC24 AUC fold over DMSO @10 μM [2] | Compound |
| --- | --- | --- | --- |
| 0.7 | 138 | C (“C” refers to AUC @10 uM <4) | CC(C)(SCC1CC1(F)F)[C@H](NC(=O)c1ccc2ccccc2c1OCc1ccc(C(F)(F)F)cc1)C(=O)O (stereo partly drawn) [Example 163, (2R)-3-(((2,2-difluorocyclopropyl)methyl)thio)-3-methyl-2-(1-((4-(trifluoromethyl)benzyl)oxy)-2-naphthamido)butanoic Acid] |
| 0.6 | 112 | C (“C” refers to AUC @10 uM <4) | CC(C)(SCC1CC1(F)F)[C@H](NC(=O)c1ccc2ccccc2c1OCc1ccc(SC(F)(F)F)cc1)C(=O)O (stereo partly drawn) [Example 164, (2R)-3-(((2,2-difluorocyclopropyl)methyl)thio)-3-methyl-2-(1-((4-((trifluoromethyl)thio)benzyl)oxy)-2-naphthamido)butanoic Acid] |
| 1.2 | 63.5 | C (“C” refers to AUC @10 uM <4) | CC(C)(SCC1CC1(F)F)[C@H](NC(=O)c1ccc2cc(F)ccc2c1OCc1ccc(SC(F)(F)F)cc1)C(=O)O (stereo partly drawn) [Example 167, (2R)-3-(((2,2-difluorocyclopropyl)methyl)thio)-2-(6-fluoro-1-((4-((trifluoromethyl)thio)benzyl)oxy)-2-naphthamido)-3-methylbutanoic Acid] |
| 0.8 | 157 | B (“B” refers to AUC @10 uM between 4-6) | CC(C)(SC1CCCC1)[C@H](NC(=O)c1ccc2ccccc2c1OCc1ccc(C(F)(F)F)cc1)C(=O)O [Example 168, (R)-3-(cyclopentylthio)-3-methyl-2-(1-((4-(trifluoromethyl)benzyl)oxy)-2-naphthamido)butanoic Acid] |
| 0.4 | 138 | B (“B” refers to AUC @10 uM between 4-6) | CC(C)(SC1CCCC1)[C@H](NC(=O)c1ccc2ccccc2c1OCc1ccc(SC(F)(F)F)cc1)C(=O)O [Example 169, (R)-3-(cyclopentylthio)-3-methyl-2-(1-((4-((trifluoromethyl)thio)benzyl)oxy)-2-naphthamido)butanoic Acid] |
| 0.5 | 62.7 | C (“C” refers to AUC @10 uM <4) | CC(C)(SC1CCCC1)[C@H](NC(=O)c1ccc2cc(F)ccc2c1OCc1ccc(SC(F)(F)F)cc1)C(=O)O [Example 172] |
| 0.7 | 164 | B (“B” refers to AUC @10 uM between 4-6) | CC(C)(S[C@@H]1C[C@@H]2CC[C@H]1C2)[C@H](NC(=O)c1ccc2ccccc2c1OCc1ccc(C(F)(F)F)cc1)C(=O)O [Example 173, (R)-3-(((1S,2R,4R)-bicyclo[2.2.1]heptan-2-yl)thio)-3-methyl-2-(1-((4-(trifluoromethyl)benzyl)oxy)-2-naphthamido)butanoic Acid] |
| 0.3 | 117 | C (“C” refers to AUC @10 uM <4) | CC(C)(S[C@@H]1C[C@@H]2CC[C@H]1C2)[C@H](NC(=O)c1ccc2ccccc2c1OCc1ccc(SC(F)(F)F)cc1)C(=O)O [Example 174, (R)-3-(((1S,2R,4R)-bicyclo[2.2.1]heptan-2-yl)thio)-3-methyl-2-(1-((4-((trifluoromethyl)thio)benzyl)oxy)-2-naphthamido)butanoic Acid] |
| 3 | 152 | C (“C” refers to AUC @10 uM <4) | CC(C)(SC1CC2CCC1C2)[C@H](NC(=O)c1ccc2ccccc2c1OCC1CCCCC1)C(=O)O (stereo partly drawn) [Example 175] |
| 0.7 | 64.7 | C (“C” refers to AUC @10 uM <4) | CC(C)(S[C@@H]1C[C@@H]2CC[C@H]1C2)[C@H](NC(=O)c1ccc2cc(F)ccc2c1OCc1ccc(SC(F)(F)F)cc1)C(=O)O [Example 177, (R)-3-(((1S,2R,4R)-bicyclo[2.2.1]heptan-2-yl)thio)-2-(6-fluoro-1-((4-((trifluoromethyl)thio)benzyl)oxy)-2-naphthamido)-3-methylbutanoic Acid] |
| 11.5 | 80.8 | B (“B” refers to AUC @10 uM between 4-6) | O=C(N[C@@H](Cc1ccc(C(F)(F)F)cc1)C(=O)O)c1ccc2cc(F)ccc2c1OCc1ccc(C(F)(F)F)cc1 [Example 197, (S)-2-(6-fluoro-1-((4-(trifluoromethyl)benzyl)oxy)-2-naphthamido)-3-(4-(trifluoromethyl)phenyl)propanoic Acid] |
| 1.5 | 94.4 | A (“A” refers to AUC @10 uM >6) | CC(C)(C)C[C@H](NC(=O)c1ccc2cc(F)ccc2c1OCc1ccc(C(F)(F)F)cc1)C(=O)O [Example 198, (S)-2-(6-fluoro-1-((4-(trifluoromethyl)benzyl)oxy)-2-naphthamido)-4,4-dimethylpentanoic Acid] |

Source: US12630498B2 (Genzyme Corporation, priority 2019, dated 2026)
